Source: ChEMBL document CHEMBL5390264, “Exploring Fatty Acid Mimetics as NR4A Ligands” (J Med Chem, 2023)
Active and inactive are the calls of the source. The rule behind the calls is not given here.

What was measured:
[1] = molecular target: Nuclear receptor subfamily 4immunitygroup A member 1 (Homo sapiens, UniProt P22736); assay: Agonist activity at human Nur77 LBD transiently transfected in HEK293T cells assessed as maximal activation incubated for 16 hrs by Gal4-hybrid reporter gene based Dual-glo luciferase assay relative to control; type: cell-based; settings: filed as agonist
[2] = molecular target: T1, Nuclear receptor subfamily 4 group A member 2 (Homo sapiens, UniProt P43354); assay: Agonist activity at human Nurr1 LBD transiently transfected in HEK293T cells incubated for 16 hrs by Gal4-hybrid reporter gene based Dual-glo luciferase assay; type: cell-based; settings: read-out: EC50
[3] = molecular target: Nuclear receptor subfamily 4 group A member 3 (Homo sapiens, UniProt Q92570); assay: Agonist activity at human NOR-1 LBD transiently transfected in HEK293T cells incubated for 16 hrs by Gal4-hybrid reporter gene based Dual-glo luciferase assay; type: cell-based
[4] = molecular target: T2, Retinoic acid receptor alpha (Homo sapiens) (UniProt P10276); assay: Agonist activity at RARalpha LBD (unknown origin) transiently transfected in HEK293T cells at 1 uM incubated for 16 hrs by Gal4-hybrid reporter gene based Dual-glo luciferase assay; type: cell-based
T2 sequence (whole entry): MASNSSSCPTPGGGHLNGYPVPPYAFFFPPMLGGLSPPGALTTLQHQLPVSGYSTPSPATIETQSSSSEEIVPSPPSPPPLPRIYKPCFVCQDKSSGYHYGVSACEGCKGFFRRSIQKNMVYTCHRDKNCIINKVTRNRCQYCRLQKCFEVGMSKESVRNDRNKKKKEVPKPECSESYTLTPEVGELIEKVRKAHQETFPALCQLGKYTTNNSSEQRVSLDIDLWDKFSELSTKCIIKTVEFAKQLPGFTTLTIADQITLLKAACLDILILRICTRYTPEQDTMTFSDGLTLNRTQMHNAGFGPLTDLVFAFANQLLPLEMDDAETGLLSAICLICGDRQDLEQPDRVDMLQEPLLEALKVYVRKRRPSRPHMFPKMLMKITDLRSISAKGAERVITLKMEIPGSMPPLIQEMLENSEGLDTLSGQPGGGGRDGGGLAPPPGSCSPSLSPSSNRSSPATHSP

[5] = molecular target: T3, Bile acid receptor (Homo sapiens) (UniProt Q96RI1); assay: Agonist activity at FXR LBD (unknown origin) transiently transfected in HEK293T cells at 1 uM incubated for 16 hrs by Gal4-hybrid reporter gene based Dual-glo luciferase assay; type: cell-based
T3 sequence (whole entry): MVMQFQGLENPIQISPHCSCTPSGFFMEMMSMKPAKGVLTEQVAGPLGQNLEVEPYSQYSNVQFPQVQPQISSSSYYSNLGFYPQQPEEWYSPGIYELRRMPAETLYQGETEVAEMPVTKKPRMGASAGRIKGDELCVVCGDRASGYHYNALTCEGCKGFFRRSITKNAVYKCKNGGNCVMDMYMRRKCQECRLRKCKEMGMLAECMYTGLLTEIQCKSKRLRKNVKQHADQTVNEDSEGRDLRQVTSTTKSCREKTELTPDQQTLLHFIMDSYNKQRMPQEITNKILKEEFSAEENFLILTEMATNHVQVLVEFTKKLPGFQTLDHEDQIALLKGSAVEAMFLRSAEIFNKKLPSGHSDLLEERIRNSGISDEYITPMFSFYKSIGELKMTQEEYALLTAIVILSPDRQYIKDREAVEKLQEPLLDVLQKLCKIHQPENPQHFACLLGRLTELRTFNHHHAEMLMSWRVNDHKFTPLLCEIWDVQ

[6] = molecular target: T4, Retinoic acid receptor RXR-alpha (Homo sapiens) (UniProt P19793); assay: Agonist activity at human full length RXRalpha transiently transfected in HEK293T cells at 1 uM incubated for 16 hrs by Gal4-hybrid reporter gene based Dual-glo luciferase assay; type: cell-based
T4 sequence (whole entry): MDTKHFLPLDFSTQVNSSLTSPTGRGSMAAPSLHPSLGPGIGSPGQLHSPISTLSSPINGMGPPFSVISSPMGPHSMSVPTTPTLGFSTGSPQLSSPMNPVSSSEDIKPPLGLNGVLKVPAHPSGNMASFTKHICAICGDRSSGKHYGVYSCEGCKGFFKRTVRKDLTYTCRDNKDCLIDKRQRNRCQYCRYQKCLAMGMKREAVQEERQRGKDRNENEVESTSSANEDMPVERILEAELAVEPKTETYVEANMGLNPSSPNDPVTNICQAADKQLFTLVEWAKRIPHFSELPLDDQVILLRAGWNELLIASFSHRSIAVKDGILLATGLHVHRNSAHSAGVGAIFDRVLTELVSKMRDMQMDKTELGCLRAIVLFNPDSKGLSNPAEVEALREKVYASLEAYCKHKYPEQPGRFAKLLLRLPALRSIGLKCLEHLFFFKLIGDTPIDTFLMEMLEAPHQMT

[7] = Selectivity ratio for agonist activity at PPARgamma LBD (unknown origin) transiently transfected in HEK293T cells to agonist activity at human Nur77 LBD transiently transfected in HEK293T cells; type: cell-based
[8] = Selectivity ratio for agonist activity at THRalpha LBD (unknown origin) transiently transfected in HEK293T cells to agonist activity at human Nurr1 LBD transiently transfected in HEK293T cells; type: cell-based
[9] = Selectivity ratio for agonist activity at RARalpha LBD (unknown origin) transiently transfected in HEK293T cells to agonist activity at human Nurr1 LBD transiently transfected in HEK293T cells; type: cell-based
[10] = Selectivity ratio for agonist activity at PPARalpha LBD (unknown origin) transiently transfected in HEK293T cells to agonist activity at human Nurr1 LBD transiently transfected in HEK293T cells; type: cell-based
[11] = Selectivity ratio for agonist activity at RXRalpha LBD (unknown origin) transiently transfected in HEK293T cells to agonist activity at human Nurr1 LBD transiently transfected in HEK293T cells; type: cell-based
[12] = Selectivity ratio for agonist activity at RARalpha LBD (unknown origin) transiently transfected in HEK293T cells to agonist activity at human NOR-1 LBD transiently transfected in HEK293T cells; type: cell-based
[13] = Selectivity ratio for agonist activity at PPARalpha LBD (unknown origin) transiently transfected in HEK293T cells to agonist activity at human NOR-1 LBD transiently transfected in HEK293T cells; type: cell-based
[14] = Selectivity ratio for agonist activity at PPARgamma LBD (unknown origin) transiently transfected in HEK293T cells to agonist activity at human NOR-1 LBD transiently transfected in HEK293T cells; type: cell-based
[15] = Selectivity ratio for agonist activity at PPARdelta LBD (unknown origin) transiently transfected in HEK293T cells to agonist activity at human NOR-1 LBD transiently transfected in HEK293T cells; type: cell-based
[16] = Selectivity ratio for agonist activity at FXR LBD (unknown origin) transiently transfected in HEK293T cells to agonist activity at human NOR-1 LBD transiently transfected in HEK293T cells; type: cell-based
[17] = molecular target: T1, Nuclear receptor subfamily 4 group A member 2; assay: Agonist activity at full length human Nurr1 transiently transfected in HEK293T cells co-transfected with pFR-Luc-DR5 incubated for 16 hrs by Gal4-hybrid reporter gene based Dual-glo luciferase assay; type: cell-based
[18] = molecular target: T1, Nuclear receptor subfamily 4 group A member 2; settings: filed as agonist, dose 100.0 µM

T1 sequence (P43354 whole entry, the tested form may be a part): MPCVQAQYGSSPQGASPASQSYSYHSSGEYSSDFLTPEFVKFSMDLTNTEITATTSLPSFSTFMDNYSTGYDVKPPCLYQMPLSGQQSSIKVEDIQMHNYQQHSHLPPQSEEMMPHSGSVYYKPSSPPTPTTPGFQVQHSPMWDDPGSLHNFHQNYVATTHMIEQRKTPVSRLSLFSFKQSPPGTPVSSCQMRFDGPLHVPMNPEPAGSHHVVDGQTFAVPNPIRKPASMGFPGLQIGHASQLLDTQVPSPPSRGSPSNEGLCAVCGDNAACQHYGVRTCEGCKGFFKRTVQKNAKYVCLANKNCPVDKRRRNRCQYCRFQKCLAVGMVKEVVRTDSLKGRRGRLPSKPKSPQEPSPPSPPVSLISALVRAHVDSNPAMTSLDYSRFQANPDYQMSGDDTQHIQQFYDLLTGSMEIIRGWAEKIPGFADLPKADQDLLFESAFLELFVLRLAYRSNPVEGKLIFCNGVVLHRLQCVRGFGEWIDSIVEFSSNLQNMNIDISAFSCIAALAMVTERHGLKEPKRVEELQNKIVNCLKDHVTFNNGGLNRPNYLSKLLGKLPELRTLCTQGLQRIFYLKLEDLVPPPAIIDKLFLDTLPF
Sequence of Nuclear receptor subfamily 4immunitygroup A member 1 (P22736 whole entry, the tested form may be a part): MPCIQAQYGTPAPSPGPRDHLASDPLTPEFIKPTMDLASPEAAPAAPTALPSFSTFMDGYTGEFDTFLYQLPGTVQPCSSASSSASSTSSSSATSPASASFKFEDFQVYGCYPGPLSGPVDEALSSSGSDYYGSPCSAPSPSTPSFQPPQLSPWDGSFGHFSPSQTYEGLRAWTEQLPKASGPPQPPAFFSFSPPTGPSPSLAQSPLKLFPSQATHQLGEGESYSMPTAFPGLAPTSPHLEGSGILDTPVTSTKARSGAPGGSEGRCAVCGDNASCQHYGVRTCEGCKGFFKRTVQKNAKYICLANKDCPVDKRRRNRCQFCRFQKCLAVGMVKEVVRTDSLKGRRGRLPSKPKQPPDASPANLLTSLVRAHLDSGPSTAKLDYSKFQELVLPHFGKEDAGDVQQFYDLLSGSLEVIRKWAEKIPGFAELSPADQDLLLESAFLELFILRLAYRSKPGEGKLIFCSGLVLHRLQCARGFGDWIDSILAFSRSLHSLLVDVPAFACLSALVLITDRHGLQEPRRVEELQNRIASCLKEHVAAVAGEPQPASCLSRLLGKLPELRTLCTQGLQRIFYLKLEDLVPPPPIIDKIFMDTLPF
Sequence of Nuclear receptor subfamily 4 group A member 3 (Q92570 whole entry, the tested form may be a part): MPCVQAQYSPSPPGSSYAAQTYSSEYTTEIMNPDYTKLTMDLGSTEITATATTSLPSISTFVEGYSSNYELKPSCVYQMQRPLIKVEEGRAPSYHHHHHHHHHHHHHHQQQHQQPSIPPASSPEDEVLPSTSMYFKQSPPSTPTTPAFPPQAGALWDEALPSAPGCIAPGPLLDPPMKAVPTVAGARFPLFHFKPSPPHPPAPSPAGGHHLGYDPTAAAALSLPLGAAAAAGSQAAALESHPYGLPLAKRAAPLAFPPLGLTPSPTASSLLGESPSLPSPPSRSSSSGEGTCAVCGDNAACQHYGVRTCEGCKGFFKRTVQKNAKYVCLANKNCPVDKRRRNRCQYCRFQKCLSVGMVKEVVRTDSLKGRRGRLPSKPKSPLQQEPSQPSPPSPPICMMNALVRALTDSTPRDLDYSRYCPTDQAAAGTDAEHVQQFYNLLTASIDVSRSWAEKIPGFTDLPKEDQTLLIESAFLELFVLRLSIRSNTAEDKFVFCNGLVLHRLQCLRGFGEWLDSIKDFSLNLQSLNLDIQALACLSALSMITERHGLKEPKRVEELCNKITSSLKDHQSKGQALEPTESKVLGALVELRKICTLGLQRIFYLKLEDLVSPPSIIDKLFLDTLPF

- Emax [1]: 163%
- EC50 [2]: 120 nM
- EC50 [3]: 70 nM
- Activity [4]: inactive
- Activity [5]: inactive
- Activity [6]: inactive
- EC50 [17]: 12 nM
- -TdeltaS [18]: -5.2 kcal/mol
SMILES: CC(C)(C)c1ccc(COc2cccc(C(=O)O)c2)cc1
- Selectivity ratio [7]: > 30
- Selectivity ratio [8]: > 30
- Selectivity ratio [9]: > 30
- Selectivity ratio [10]: > 30
- Selectivity ratio [11]: > 30
- Selectivity ratio [12]: > 30
- Selectivity ratio [13]: > 30
- Selectivity ratio [14]: > 30
- Selectivity ratio [15]: > 30
- Selectivity ratio [16]: > 30
